“And” between values parts separate entries of the source, which are not always exact repeats. Identical values can stand only once. Like-named read-outs stand apart in the source and are kept apart here. Where a SMILES comes first, the peptide text is derived from it.
Experiments:
[1] = system: N-acetyldehydroleucine acylase; test: Influence of additive substances on the splitting of N-acetyldehydroleucine under standard conditions; type: biochemical, Zoogloea ramigera
Procedure: The mixing together of the batches, their storage and the taking of specimens took place under sterile conditions. The standard conditions for the enzyme test were:
20 mM N-Acetyldehydroleucine

[2] = system: N-acetyldehydroleucine acylase; test: Hydrolysis of other compounds by the acylase (TLC / amino acid analyzer); type: biochemical, Zoogloea ramigera; conditions: for rel. activity (%): 50 mM test substrate, 0.1 M tris/HCl pH 9, 25° C., hydrolysis rate with N-acetyldehydroleucine = 100%
Procedure: A qualitative check was performed for 81 compounds to see whether they are accepted as substrate by the acylase. The test batches contained:
After 16 and 40 hours incubation at 25° C., specimens were taken from the batches, most of which specimens were analyzed in comparison to substrate standards by means of thin-layer chromatography (70% (v/v) ethanol as mobile solvent). The detection took place with ninhydrin spray reagent. A few specimens were tested in addition or alternatively with the amino acid analyzer.
The amino acids produced from the amino acid amides by means of the action of acylase were detected quantitatively with the amino acid analyzer.

SMILES | % Residual activity ([1]; inhibitor 1 mM) [%] | % Residual activity ([1]; inhibitor 10 mM) [%] | rel. activity (%) [2] [%] | other results
O[C@H](CS)[C@H](O)CS (racemic) [Dithiothreitol] | 103 | 58 |  | 
CC(=O)NC(CC(C)C)C(=O)O (racemic) [N-acetyl-D,L-leucine] |  |  | 0 | 
CC(C)CC(NC(=O)c1ccccc1)C(=O)O (racemic) [N-benzoyl-D,L-leucine] |  |  | 0 | 
COC(=O)NC(CC(C)C)C(=O)O (racemic) [N-methoxycarbonyl-D,L-leucine] |  |  | 0 | 
COC(=O)NC(C(=O)O)C(C)C (racemic) [N-methoxycarbonyl-D,L-valine] |  |  | 0 | 
CNC(CC(C)C)C(=O)O (racemic) [N-methyl-D,L-leucine] |  |  | 0 | 
c1ccc(-c2ccccn2)nc1 [Bipyridine] | 91 | 70 |  | 
[Ca+2].[Cl-].[Cl-] [CaCl2] |  | 93 |  | 
O=C(O)CC(O)(CC(=O)O)C(=O)O [Citrate] | 99 | 84 |  | 
[Cl-].[Cl-].[Co+2] [CoCl2] | 91 | 85 |  | 
O=S(=O)([O-])[O-].[Cu+2] [CuSO4] | 87 | 83 |  | 
N[C@@H]1CON=C1O [Cycloserine] | 111 | 105 |  | 
C[C@@H](N)C(N)=O [D-alanine amide] |  |  | 0.46 | 
CC(C)C[C@@H](N)C(N)=O [D-leucine amide] |  |  | 3.82 | Substrate specificity: hydrolysis by the acylase [2]: hydrolyzes
NC(=O)[C@H](N)Cc1c[nH]c2ccccc12 [D-tryptophane amide] |  |  |  | Substrate specificity: hydrolysis by the acylase [2]: hydrolyzes
O=C(O)CN(CCN(CC(=O)O)CC(=O)O)CC(=O)O [EDTA] |  |  |  | % Residual activity [1]: 95%
N[C@@H](CCC(=O)N[C@@H](CS)C(=O)NCC(=O)O)C(=O)O [Glutathione reduced] |  |  |  | % Residual activity [1]: 95%
CC(C)C[C@H](NC(=O)CN)C(=O)O [Glycyl-L-leucine] |  |  | 0 | 
[Cl][Hg][Cl] [HgCl2] | 84 | 70 |  | 
C[C@H](N)C(N)=O [L-alanine amide] |  |  | 0.35 | 
C[C@H](N)C(=O)NCC(=O)O [L-alanyl glycine] (H-Ala-Gly-OH) |  |  | 0 | 
CC(C)C[C@H](NC(=O)[C@H](C)N)C(=O)O [L-alanyl-L-leucine] (H-Ala-Leu-OH) |  |  | 0 | 
C[C@H](N)C(=O)N[C@@H](Cc1ccccc1)C(N)=O [L-alanyl-L-phenylalanine amide] |  |  | 0 | 
CC(C)C[C@H](N)C(N)=O [L-leucine amide] |  |  | 6.80 | Substrate specificity: hydrolysis by the acylase [2]: hydrolyzes
CC(C)C[C@H](N)C(=O)NCC(=O)O [L-leucyl glycine] (H-Leu-Gly-OH) |  |  | 0 | 

SMILES | % Residual activity ([1]; inhibitor 1 mM) [%] | % Residual activity ([1]; inhibitor 10 mM) [%] | rel. activity (%) [2] [%] | other results
CSCC[C@H](N)C(N)=O [L-methionine amide] |  |  | 4.69 | Substrate specificity: hydrolysis by the acylase [2]: hydrolyzes
NC(=O)[C@@H](N)Cc1c[nH]c2ccccc12 [L-tryptophane amide] |  |  | 20.4 | Substrate specificity: hydrolysis by the acylase [2]: hydrolyzes
N[C@@H](Cc1c[nH]c2ccccc12)C(=O)NCC(=O)O [L-tryptophyl glycine] (H-Trp-Gly-OH) |  |  | 0 | 
OCCS [MeSH, mercaptoethanol] | 93 | 99 |  | % Residual activity ([1]; inhibitor 100 mM): 81%
[Cl-].[Cl-].[Mg+2] [MgCl2] | 95 | 88 |  | 
[Cl][Mn][Cl] [MnCl2] | 99 | 87 |  | 
CC(=O)NCC(=O)O [N-acetyl glycine] |  |  | 0 | 
CC(=O)N[C@@H](CC(C)C)C(=O)O [N-acetyl leucine] |  |  |  | Substrate specificity: hydrolysis by the acylase [2]: not
CC(=O)N[C@H](C(=O)O)C(C)C [N-acetyl valine] |  |  |  | Substrate specificity: hydrolysis by the acylase [2]: not
CC(=O)N[C@@H](C)C(=O)N[C@H](C(=O)O)C(C)C [N-acetyl-L-alanyl-L-valine] (Ac-Ala-Val-OH) |  |  | 0 | 
CC(=O)N[C@@H](Cc1ccccc1)C(=O)O [N-acetyl-L-phenylalanine] |  |  | 0 | 
NC(=O)N[C@@H](Cc1ccccc1)C(=O)O [N-carbamoyl-L-phenylalanine] |  |  | 0 | 
CC(C)[C@H](NC(N)=O)C(=O)O [N-carbamoyl-L-valine] |  |  | 0 | 
CN[C@@H](CCC(=O)O)C(=O)O [N-methyl-L-glutamic acid] |  |  | 0 | 
[N-]=[N+]=[N-].[Na+] [NaN3] | 105 | 103 |  | 
CN(C)C(=O)Oc1cccc([N+](C)(C)C)c1 [Neostigmine] | 102 | 82 |  | % Residual activity ([1]; inhibitor 100 mM): 0%
O=S(=O)(F)Cc1ccccc1 [PMSF, phenylmethane sulfonyl fluoride] |  |  |  | % Residual activity ([1]; inhibitor 0.0001 mM): 10%; % Residual activity ([1]; inhibitor 0.01 mM): 0%; Inhibition of the acylase ([1]; phenylmethane sulfonyl fluoride still in micromolar concentration): sharply inhibit; Influence of inhibitors on the acylase ([1]; phenylmethane sulfonylfluoride: 0.001 mM): exert an inhibitory action
c1cnc2c(c1)ccc1cccnc12 [Phenanthroline] | 94 | 52 |  | 
NNC(N)=O [Semicarbazide] | 113 | 93 |  | 
[Cl-].[Cl-].[Zn+2] [ZnCl2] | 95 | 82 |  | 
NC(=O)CI [iodine acetamide] | 104 | 74 |  | 
O=C(O)CI [iodine acetate] |  |  |  | % Residual activity [1]: 76% and 49%
N=C(N)c1ccc(N)cc1 [pABA, paraaminobenzamidine] |  | 89 |  | % Residual activity ([1]; inhibitor 100 mM): 54%; % Residual activity ([1]; inhibitor 200 mM): 0%
O=C(O)c1cc[c]([Hg][OH])cc1 [pCMB, parahydroxy mercury benzoate] | 104 | 98 |  | 
O=C(O)c1cc[c]([Hg][OH])cc1 [pOHMB, parahydroxy mercuric benzoate] | 93 | 91 |  | 

From patent publication US5134073A, “Microbiologically produced N-acetyl-2,3-didehydroleucine acylase” (Degussa Aktiengesellschaft, priority 1989, dated 1992)
